Data as given in ChEMBL document CHEMBL4715865, “Antimyeloma Potential of Caffeic Acid Phenethyl Ester and Its Analogues through Sp1 Mediated Downregulation of IKZF1-IRF4-MYC Axis” (J Nat Prod, 2020).
Active and inactive are the calls of the source. No cut-off for these calls is given here.

What was measured:
KMM-1 [1] = assay: (§1) Growth inhibition of human KMM-1 cells at 10 uM after 48 hrs by PrestoBlue cell viability assay relative to control; format: functional
KMM-1 [2] = assay: Down regulation of cyclin D3 expression in human KMM-1 cells at 5 to 50 uM after 48 hrs by immunoblotting analysis; format: functional, cell-based; settings: dose 5-50 µM
KMM-1 [3] = assay: Growth inhibition of human KMM-1 cells at 1 to 10 uM after 48 hrs by PrestoBlue cell viability assay; format: functional, cell-based; settings: dose 1-10 µM
[4] = Growth inhibition of human KMM-1 cells after 48 hrs by PrestoBlue cell viability assay; format: functional, cell-based; settings: KMM-1, 48 h
JJN-3 [5] = assay: Growth inhibition of human JJN-3 cells after 48 hrs by PrestoBlue cell viability assay; format: functional, cell-based; settings: JJN-3, 48 h
JJN-3 [6] = assay: Down regulation of SP1 protein expression in human JJN-3 cells at 10 uM after 48 hrs by immunoblotting analysis; format: functional, cell-based
[7] = Growth inhibition of human KMM-1 cells at 50 uM after 48 hrs by PrestoBlue cell viability assay relative to control; format: functional; settings: read-out: GI
A549 = assay: Cytotoxicity against human A549 cells assessed as reduction in cell viability after 48 hrs by MTT assay; format: functional, cell-based; settings: A549, 48 h
MM.1R [8] = assay: Induction of apoptosis in human MM1.R cells assessed as increase in cleaved caspace-8 protein expression at 5 to 25 uM after 48 hrs by immunoblotting analysis; format: functional, cell-based; settings: dose 5-25 µM
[9] = Down regulation of IRF4 protein expression in human KMM-1 cells at 50 uM incubated for 48 hrs by 48 hrs by immunoblotting analysis relative to control; format: functional
[10] = Growth inhibition of human MM1.R cells after 48 hrs by PrestoBlue cell viability assay; format: functional; settings: MM.1R
[11] = Induction of apoptosis in human KMM-1 cells assessed as late apoptotic cells at 10 uM after 72 hrs by Annexin V/PropidiumIodide staining based flow cytometric analysis (reference value: 4 +/- 0.5%); format: functional
B cell = assay: Cytotoxicity against human naive B cells assessed as reduction in cll viability at 25 to 50 uM after 48 hrs by PrestoBlue cell viability assay; format: cell-based; settings: dose 25-50 µM
[12] = Induction of apoptosis in human KMM-1 cells assessed as early apoptotic cells at 25 uM after 72 hrs by Annexin V/PropidiumIodide staining based flow cytometric analysis (reference value: 1 +/- 0.4%); format: functional
[13] = Induction of apoptosis in human MM1.R cells assessed as apoptotic cells at 10 uM after 72 hrs by Annexin V/PropidiumIodide staining based flow cytometric analysis relative to control; format: functional, MM.1R
[14] = Induction of apoptosis in human KMM-1 cells assessed as viable cells at 25 uM after 72 hrs by Annexin V/PropidiumIodide staining based flow cytometric analysis (reference value: 87 +/- 1%); format: functional; settings: read-out: Activity
IMR-32 = assay: Cytotoxicity against human IMR-32 cells assessed as reduction in cell viability after 48 hrs by MTT assay; format: functional, cell-based; settings: IMR-32, 48 h
[15] = Cytotoxicity against human Mononuclear cells assessed as reduction in cll viability at 25 to 50 uM after 48 hrs by PrestoBlue cell viability assay; format: cell-based; settings: mononuclear cell line, dose 25-50 µM
[16] = Induction of apoptosis in human KMM-1 cells assessed as late apoptotic cells at 25 uM after 72 hrs by Annexin V/PropidiumIodide staining based flow cytometric analysis (reference value: 4 +/- 0.5%); format: functional
[17] = Induction of apoptosis in human KMM-1 cells assessed as apoptotic cells at 10 uM after 72 hrs by Annexin V/PropidiumIodide staining based flow cytometric analysis relative to control; format: functional
MM.1R [18] = assay: Down regulation of SP1 protein expression in human MM1.R cells at 10 uM after 48 hrs by immunoblotting analysis; format: functional, cell-based
[19] = Growth inhibition of human KMM-1 cells at 25 uM after 48 hrs by PrestoBlue cell viability assay relative to control; format: functional; settings: read-out: GI
[20] = Induction of apoptosis in human KMM-1 cells assessed as viable cells at 10 uM after 72 hrs by Annexin V/PropidiumIodide staining based flow cytometric analysis (reference value: 87 +/- 1%); format: functional; settings: read-out: Activity
[21] = Induction of apoptosis in human KMM-1 cells assessed as necrotic cells at 10 uM after 72 hrs by Annexin V/PropidiumIodide staining based flow cytometric analysis (reference value: 8 +/-1%); format: functional
[22] = Induction of apoptosis in human KMM-1 cells assessed as early apoptotic cells at 10 uM after 72 hrs by Annexin V/PropidiumIodide staining based flow cytometric analysis (reference value: 1 +/- 0.4%); format: functional
KMM-1 [23] = assay: Down regulation of IRF4 mRNA expression in human KMM-1 cells at 50 uM incubated for 48 hrs by 48 hrs by RT-PCR analysis; format: functional, cell-based
KMM-1 [24] = assay: Growth inhibition of human KMM-1 cells at 1 to 100 uM after 72 hrs by PrestoBlue cell viability assay; format: functional, cell-based; settings: dose 1-100 µM
[25] = Induction of apoptosis in human KMM-1 cells assessed as necrotic cells at 25 uM after 72 hrs by Annexin V/PropidiumIodide staining based flow cytometric analysis (reference value: 8 +/-1%); format: functional
KMM-1 [26] = assay: Growth inhibition of human KMM-1 cells assessed as induction morphological changes at 25 to 50 uM after 48 hrs by phase contrast microscopic method; format: functional, cell-based; settings: dose 25-50 µM
[27] = Induction of apoptosis in human KMM-1 cells assessed as increase in cleaved caspace-3 expression at 50 uM after 48 hrs by immunoblotting analysis; format: functional
KMM-1 [28] = assay: Growth inhibition of human KMM-1 cells at 0.001 to 50 uM after 48 hrs by PrestoBlue cell viability assay; format: functional, cell-based; settings: dose 0.001-50 µM
MM.1R [29] = assay: Induction of apoptosis in human MM1.R cells assessed as increase in cleaved caspace-8 protein expression at 10 uM after 48 hrs by immunoblotting analysis; format: functional, cell-based
MM.1R [30] = assay: Down regulation of MYC protein expression in human MM1.R cells at 10 uM after 48 hrs by immunoblotting analysis; format: functional, cell-based
[31] = Potency index, ratio of lenalidomide IC50 to test compound IC50 for growth inhibition of human KMM-1 cells; format: functional
MM.1R [32] = assay: Induction of apoptosis in human MM1.R cells at 10 uM after 48 hrs by Annexin V/Propidium Iodide flow cytometric analysis; format: functional, cell-based
[33] = as §1; format: functional; settings: read-out: GI
MM.1R [34] = assay: Down regulation of MYC protein expression in human MM1.R cells at 5 to 10 uM after 48 hrs by immunoblotting analysis; format: functional, cell-based; settings: dose 5-10 µM
JJN-3 [35] = assay: Down regulation of IKZF1 protein expression in human JJN-3 cells at 10 to 100 uM after 48 hrs in presence of TMP by immunoblotting analysis; format: functional, cell-based; settings: dose 10-100 µM
JJN-3 [36] = assay: Induction of apoptosis in human JJN-3 cells assessed as increase in cleaved caspace-8 protein expression at 10 to 50 uM after 48 hrs by […]; format: functional, cell-based; settings: dose 10-50 µM
MM.1R [37] = assay: Down regulation of IKZF3 protein expression in human MM1.R cells at 5 to 10 uM after 48 hrs by immunoblotting analysis; format: functional, cell-based; settings: dose 5-10 µM
MM.1R [38] = assay: Down regulation of IKZF1 protein expression in human MM1.R cells at 5 to 10 uM after 48 hrs by immunoblotting analysis; format: functional, cell-based; settings: dose 5-10 µM
JJN-3 [39] = assay: Down regulation of IRF4 protein expression in human JJN-3 cells at 10 to 100 uM after 48 hrs in presence of TMP by immunoblotting analysis; format: functional, cell-based; settings: dose 10-100 µM
MM.1R [40] = assay: Down regulation of SP1 protein expression in human MM1.R cells at 25 uM after 48 hrs by immunoblotting analysis; format: functional, cell-based
KMM-1 [41] = assay: Down regulation of Bob-1 protein expression in human KMM-1 cells at 50 uM after 48 hrs by immunoblotting analysis; format: functional, cell-based
JJN-3 [42] = assay: Down regulation of IRF4 protein expression in human JJN-3 cells at 50 uM after 48 hrs by immunoblotting analysis; format: functional, cell-based
KMM-1 [43] = assay: Down regulation of OCT2 protein expression in human KMM-1 cells at 50 uM after 48 hrs by immunoblotting analysis; format: functional, cell-based
JJN-3 [44] = assay: Down regulation of IKZF1 protein expression in human JJN-3 cells at 50 uM after 48 hrs by immunoblotting analysis; format: functional, cell-based
JJN-3 [45] = assay: Down regulation of SP1 protein expression in human JJN-3 cells at 25 uM after 48 hrs by immunoblotting analysis; format: functional, cell-based
KMM-1 [46] = assay: Down regulation of cyclin D3 expression in human KMM-1 cells after 48 hrs by immunoblotting analysis; format: functional, cell-based; settings: dose 5-50 µM

## COc1cc(/C=C/C(=O)OCCc2ccccc2)cc(OC)c1O
KMM-1 [1]
  growth inhibition (GI): inactive

## O=C(/C=C/c1ccc(O)cc1O)OCCCc1ccccc1
KMM-1 [1]
  growth inhibition (GI): inactive

## O=C(/C=C/c1ccc(O)c(O)c1)NCCc1ccccc1
KMM-1 [2]
  Activity: inactive
KMM-1 [3]
  growth inhibition (GI): Active

## O=C(/C=C/c1cccc(O)c1O)OCCCc1ccccc1
KMM-1 [1]
  growth inhibition (GI): inactive

## COc1cc(/C=C/C(=O)OCCc2ccccc2)ccc1O
KMM-1 [1]
  growth inhibition (GI): inactive

## O=C(/C=C/c1ccc(O)c(O)c1)OCCc1ccccc1 [CAFFEIC ACID PHENETHYL ESTER]
[4]
  IC50: 37.5 µM
JJN-3 [5]
  IC50: 30 µM
JJN-3 [6]
  Activity: Active
[7]
  inhibition of growth at 50 µM: 59%
A549
  IC50: 80 µM
MM.1R [8]
  Activity: Active
[9]
  Activity: 26%
[10]
  IC50: 17.8 µM
[11]
  Activity: 9%
B cell
  Activity: Non-Toxic
[12]
  Activity: 4%
[13]
  Activity: 41%
[14]
  viability at 25 µM: 51%
IMR-32
  IC50: 5 µM
[15]
  Activity: Non-Toxic
[16]
  Activity: 15%
[17]
  Activity: 25.8%
MM.1R [18]
  Activity: Active
[19]
  inhibition of growth at 25 µM: 38.7%
[20]
  viability at 10 µM: 71%
[21]
  Activity: 17%
KMM-1 [3]
  growth inhibition (GI): Active
[22]
  Activity: 3%
KMM-1 [23]
  Activity: Active
KMM-1 [24]
  growth inhibition (GI): Active
[25]
  Activity: 31%
KMM-1 [26]
  growth inhibition (GI): Active

## O=C(/C=C/c1ccc(O)c(O)c1)OCCC1CCCCC1
[27]
  fold change (FC): 3.2
KMM-1 [3]
  growth inhibition (GI): Active

## Nc1cccc2c1C(=O)N(C1CCC(=O)NC1=O)C2=O (configuration not stated) [POMALIDOMIDE]
[13]
  Activity: 43%
[17]
  Activity: 18.4%
KMM-1 [28]
  growth inhibition (GI): inactive

## COc1cc(/C=C/C(=O)OCCCc2ccccc2)cc(OC)c1O
KMM-1 [1]
  growth inhibition (GI): inactive

## Oc1ccc(/C=C/COCCCc2ccccc2)cc1O
[4]
  IC50: 6.6 µM
JJN-3 [5]
  IC50: 14 µM
MM.1R [29]
  Activity: Active
[10]
  IC50: 2 µM
MM.1R [18]
  Activity: inactive
MM.1R [30]
  Activity: inactive
[31]
  Ratio IC50: 6.5

## O=C(/C=C/c1cc(O)ccc1O)OCCCc1ccccc1
[4]
  IC50: 1.9 µM
MM.1R [32]
  Activity: Active
JJN-3 [5]
  IC50: 3.9 µM
JJN-3 [6]
  Activity: Active
MM.1R [29]
  Activity: Active
[10]
  IC50: 0.6 µM
[33]
  inhibition of growth at 10 µM: 89.7%
MM.1R [34]
  Activity: Active
JJN-3 [35]
  Activity: Active
[13]
  Activity: 54%
JJN-3 [36]
  Activity: Active
[17]
  Activity: 64.5%
MM.1R [37]
  Activity: Active
MM.1R [18]
  Activity: Active
MM.1R [38]
  Activity: Active
[31]
  Ratio IC50: 12
JJN-3 [39]
  Activity: Active

## O=C(/C=C/c1ccc(O)c(O)c1)OCCCc1ccccc1
[4]
  IC50: 12 µM
MM.1R [32]
  Activity: Active
JJN-3 [5]
  IC50: 6.7 µM
MM.1R [40]
  Activity: Active
KMM-1 [41]
  Activity: Active
[7]
  inhibition of growth at 50 µM: 80%
MM.1R [8]
  Activity: Active
[9]
  Activity: 62%
[10]
  IC50: 4.9 µM
JJN-3 [42]
  Activity: Active
[11]
  Activity: 14%
KMM-1 [43]
  Activity: Active
[33]
  inhibition of growth at 10 µM: 28%
B cell
  Activity: Non-Toxic
JJN-3 [44]
  Activity: Active
[12]
  Activity: 7%
[13]
  Activity: 30%
[14]
  viability at 25 µM: 32%
[15]
  Activity: Non-Toxic
[16]
  Activity: 17.2%
[17]
  Activity: 40.4%
[27]
  fold change (FC): 2.9
[19]
  inhibition of growth at 25 µM: 58.3%
[20]
  viability at 10 µM: 55%
[21]
  Activity: 27%
[22]
  Activity: 4%
KMM-1 [23]
  Activity: Active
KMM-1 [24]
  growth inhibition (GI): Active
JJN-3 [45]
  Activity: Active
[25]
  Activity: 43%
KMM-1 [46]
  Activity: Dose-dependent effect

## O=C(O)/C=C/c1ccc(O)c(O)c1
KMM-1 [2]
  Activity: inactive
KMM-1 [3]
  growth inhibition (GI): inactive

## COc1cc(/C=C/C(=O)OCCCc2ccccc2)ccc1O
KMM-1 [1]
  growth inhibition (GI): inactive
